According to patent US20250108038A1 (priority 2023, published 2025):
Several values for one entry are separate records, joined by “and”; a condition that tells them apart may be missing. Equal entries are not always repeated. Entries after “also recorded” stand apart in the source; their conditions may differ.

Assays:
in vivo = conditions: for plasma concentration of Compound A: Compound A single PO 5.102 mg/kg
Procedure: Dose solutions were prepared freshly on each day of studies prior to dosing.
The animals were weighed immediately prior to dosing and the dose volume was calculated individually based the obtained body weight and the nominal dose volume. […] The nominal dose volume was 10 mL/kg in both studies.
Cage side observation was performed before and after dosing as well as at each scheduled sample collection time. The observation included appearance, posture, behavior, morbidity and mortality. Abnormal findings, if any, are required to be recorded in the study record and communicated with study director, veterinarian, and Supernus if necessary.
Approximately 40 μL blood was collected at each scheduled time point from saphenous veins. The actual sample collection time was within 1 min. of the nominal time for collections prior to or at 1 hour, and within 5% of the nominal values for collections post 1 hour.
The blood samples were placed in pre-labeled micro-centrifuge tubes containing K2EDTA as anticoagulant and kept on ice before they were processed to plasma within 30 minutes of collection by centrifugation at 4° C., 3000 g for 5 minutes. The plasma samples were stored at −70±10° C. until LC-MS/MS analysis.
Plasma concentrations below the LLOQ prior to Tmax were set to zero, and those after Tmax were excluded from PK calculation. The nominal dose and the nominal sample collection time were used for the calculation. The values of plasma concentrations and PK parameters are reported to three significant figures. The average values of each treatment group are presented as mean±SD.

[1] = Stability of test articles at different pH values (SGF, SIF, PBS); type: physicochemical; conditions: 0.1 mM, 37° C., 0-120 min
Procedure: FIG. 1A. […] (final concentration 0.1 mM) and the mixture was incubated at 37° C. for 120 min. total. […] Values represent mean+SEM of n=3 separate experiments.
FIG. 1B. Stability of Compound I-4 in 3 different fluid matrices modeling 3 different body fluids: SGF (gastric, pH 2.0), SIF (upper intestinal, pH 6.0), and PBS (systemic fluid, pH 7.4). […] (final concentration 0.1 mM) and the mixture was incubated at 37° C. for 120 min. total. […] Values represent mean+SEM of n=3 separate experiments.
10 mM stock solutions of test articles were prepared in DMSO. From this stock solution, a single concentration in a 10 μL aliquot was added to three fluid matrices: SGF at pH 2.0 (gastric), SIF at pH 6.0 (upper intestine), and PBS at pH 7.4 (systemic fluid). The final volume was 1 mL (0.1 mM).
LC-MS/MS analysis of test articles was performed on a Waters Acquity UPLC system in-line with a Waters TQ-S triple quadrupole mass spectrometer via an electrospray interface.
UPLC separation of samples was performed on a Waters BEH Phenyl 2.1×50 column at 40 C. Mobile phase was 0.1% formic acid in water for mobile phase A and 0.1% formic acid in acetonitrile as mobile phase B. Gradient elution was 1% B initial, 65% B to 95% B at 2 minutes, 95% B at 4 minutes, and 1% B at 4.1 minutes. Flow rate was 0.4 mL/min and 5 μL of samples was injected.

[2] = male, CD-1, mouse, in vivo, po, 5.102 mg/kg

Structure (SMILES): OC1(c2ccc(Cl)cc2)c2ccccc2C2=NCCN21 (stereo not drawn) [Compound A, 5-(4-chlorophenyl)-2,3-dihydroimidazo[1,2-b]isoindol-5-ol, reference compound]
- plasma concentration of Compound A (in vivo; 0.500 h, individual mice, 5.102 mg/kg): 117 ng/mL and 172 ng/mL and 141 ng/mL
- plasma concentration of Compound A (in vivo; 0.500 h, mean): 143 ng/mL
- plasma concentration of Compound A (in vivo; 1.00 h, individual mice, 5.102 mg/kg): 77.8 ng/mL and 71.7 ng/mL and 102 ng/mL
- plasma concentration of Compound A (in vivo; 1.00 h, mean): 83.8 ng/mL
- plasma concentration of Compound A (in vivo; 2.00 h, individual mice, 5.102 mg/kg): 32.3 ng/mL and 25.2 ng/mL and 24.4 ng/mL
- plasma concentration of Compound A (in vivo; 2.00 h, mean): 27.3 ng/mL
- plasma concentration of Compound A (in vivo; 4.00 h, individual mice, 5.102 mg/kg): 9.42 ng/mL and 4.31 ng/mL and 8.99 ng/mL
- plasma concentration of Compound A (in vivo; 4.00 h, mean): 7.57 ng/mL
- plasma concentration of Compound A (in vivo; 8.00 h, individual mice): BQL
- plasma concentration of Compound A (in vivo; 24.0 h, individual mice): BQL
- Tmax of Compound A (in vivo; male, CD-1, mouse, in vivo, ip, 4.061 mg/kg): 30 min
- AUC(0-t) (in vivo; [2]): 179 ± 6.91 ng·h/mL
- Cmax (in vivo; [2]): 143 ± 27.6 ng/mL
- MRT last (in vivo; [2]): 70.8 ± 6.78 min
- Tmax (in vivo; [2]): 30 min
- half-life (in vivo; [2]): 53.1 ± 7.8 min
- Tmax of Compound A (in vivo; male, CD-1, mouse, in vivo, po, 6.645 mg/kg): 15 min
- Clinical observation (tolerability) (in vivo; mouse, in vivo): well tolerated

Structure (SMILES): COCCOC1(c2ccc(Cl)cc2)c2ccccc2C2=NCCN21 (stereo not drawn) [Compound I-4]
- Stability (% parent compound remaining) ([1]; PBS (systemic fluid, pH 7.4)): no significant change in the amount of parent compound; also recorded: stable in all three fluid matrices
- Stability (% parent compound remaining) ([1]; SGF (gastric, pH 2.0)): no significant change in the amount of parent compound; also recorded: stable in all three fluid matrices
- Stability (% parent compound remaining) ([1]; SIF (upper intestinal, pH 6.0)): no significant change in the amount of parent compound; also recorded: stable in all three fluid matrices
